This note sets out measurements from PubChem BioAssay (NCI).

Holding throughout (assay): NCI tumour cell line growth inhibition, 48 h
Experiment [1] deals with CAKI-1 renal.
In experiment [2] the test system is LOX IMVI melanoma.
The test system of experiment [3] is UO-31 renal.
Experiment [4] relates to EKVX NSCLC.
Experiment [5] has as its system HT29 colon.
For experiment [6], the system named is U251 CNS.
Experiment [7] has as its system CCRF-CEM leukemia.
The subject of experiment [8] is SW-620 colon.
For experiment [9], the system named is RPMI-8226 leukemia.
Experiment [10] has as its system SN12C renal.

The structures appear in SMILES notation.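 Values below derive from 48-hour exposures of cells grown in 96-well plates, with endpoints linearly interpolated between the two concentrations bracketing the appropriate inhibition level. Abbreviation: GI50, concentration required for 50% inhibition of growth. Definition used: TGI = concentration required for complete inhibition of growth.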 Some results are limits rather than exact numbers.

`C[C@H]1C(=O)O[C@@H]2CCN3CC=C(COC(=O)[C@](C)(O)[C@@]1(C)O)[C@H]23`: the TGI in [1], in [2], in experiment [3], in experiment [4], in experiment [5] and in [6] was greater than 100 µM throughout. In addition, the TGI in [7], in [8], in experiment [9] and in [10] was greater than 100 µM in each case.

In the case of `CN(C)C(=O)/C=C/c1c[nH]c(=O)[nH]c1=O`, the TGI in experiment [1] was greater than 500 µM; in experiment [2], greater than 500 µM; in experiment [3], greater than 500 µM; in experiment [4], greater than 281 µM; in experiment [5] it was greater than 500 µM; in experiment [6] it was greater than 500 µM. Besides, the TGI in [7] was greater than 500 µM; in experiment [8] it was greater than 500 µM; in [9], greater than 316 µM; in experiment [10] it was greater than 500 µM.

For `CC(=O)NNc1nc(-c2ccc([N+](=O)[O-])cc2)c(C#N)c(=O)n1C`, the TGI in experiment [1] was greater than 100 µM; in [2], 41.3 µM; in experiment [3] it was greater than 100 µM; in [4], greater than 100 µM; in [5] it was greater than 100 µM; in experiment [6] it was 50 µM. The TGI in experiment [7], in experiment [8], in experiment [9] and in experiment [10] was greater than 100 µM throughout.

On to `NCCCn1c2c(c3ccc([N+](=O)[O-])cc3c1=O)C(=O)c1ccccc1-2`, for which the GI50 in experiment [1] is 0.0276 µM; in experiment [2], 0.0173 µM; in experiment [3] it was 0.11 µM; in [4], 0.317 µM; in experiment [5], 0.0785 µM; in [6], 0.005 µM. The GI50 in [7] is 0.135 µM; in [8] it was 0.0215 µM; in experiment [9], 0.0284 µM; in experiment [10], 0.0297 µM. Further, the TGI in experiment [1] is 0.494 µM; in experiment [2], 0.225 µM; in [3] it was greater than 50 µM; in [4] it was 1.69 µM; in experiment [5] it was 1.14 µM; in experiment [6], 0.0534 µM. Further, the results for the TGI in experiment [7], in experiment [8] and in experiment [10] were greater than 50 µM, 1.24 µM and 0.16 µM, respectively.

Take `O=C(Nc1ccc([N+](=O)[O-])cc1[N+](=O)[O-])C(=O)C(C(=O)c1ccc2ccccc2c1)C1OC(=O)c2ccccc21` (centres undefined): the TGI was determined as 54 µM in experiment [1]; 37.6 µM in experiment [2]; 27.7 µM in [3]; 48 µM in experiment [4]; 36.4 µM in experiment [5]; 16.9 µM in experiment [6]. Moreover, the TGI is 32.4 µM in experiment [7], 30.9 µM in experiment [8], 68.6 µM in experiment [9] and 54.7 µM in experiment [10].

For `CC(Oc1ccc(Cl)cc1Cl)C(=O)NN1C(=O)CSC1c1ccccc1` (centres undefined), the TGI was 40 µM in experiment [1]; greater than 100 µM in [2]; greater than 100 µM in experiment [3]; greater than 100 µM in experiment [4]; greater than 100 µM in experiment [5]; greater than 100 µM in experiment [6]. Also, the TGI in experiment [7], in experiment [8], in experiment [9] and in [10] was greater than 100 µM each time.
